Test results reported in PubChem BioAssay AID330 (DTP/NCI, 2004).
Values joined by “and” are separate entries in the source; they are usually repeats but may differ in a detail not shown here. Equal values may be shown once. Inconclusive results and toxic doses are left out.

Test system: P388 leukemia ip, CD2F1 mice, survival T/C
Test: NCI In Vivo Anticancer Drug Screen. Data for tumor model P388 Leukemia (intraperitoneal) in CD2F1 (CDF1) mice
Conditions: endpoint: median survival time, higher = longer survival
Method in brief: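 Mice carrying the transplanted tumor received test compound or vehicle. Survival was recorded in each group, and the value is the treated-group measurement divided by that of the vehicle-treated control group.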

[1] = dose: 50.0 mg/kg/injection, schedule: Q01DX009 (ip), vehicle: saline with Tween-80
[2] = dose: 100.0 mg/kg/injection, schedule: Q01DX009 (ip), vehicle: saline with Tween-80
[3] = dose: 200.0 mg/kg/injection, schedule: Q01DX009 (ip), vehicle: saline with Tween-80
[4] = dose: 400.0 mg/kg/injection, schedule: Q01DX009 (ip), vehicle: saline with Tween-80

`CCC[C@@H]1[C@@H](CCC)N1C(=N)OCC` was tested, and the T/C (dose: 12.5 mg/kg/injection, schedule: Q01DX005 (ip), vehicle: suspension in saline) was 99 % of control, the T/C (dose: 25.0 mg/kg/injection, schedule: Q01DX005 (ip), vehicle: suspension in saline) was 106 % of control and the T/C (dose: 50.0 mg/kg/injection, schedule: Q01DX005 (ip), vehicle: saline) was 103 % of control. The T/C (dose: 50.0 mg/kg/injection, schedule: Q01DX005 (ip), vehicle: suspension in saline) was 106 % of control.
With `O=[N+]([O-])c1cccc(-c2ccccc2)c1Br` the T/C (dose: 37.5 mg/kg/injection, schedule: Q04DX003 (ip), vehicle: saline with Tween-80) was 100 % of control, the T/C (dose: 75.0 mg/kg/injection, schedule: Q04DX003 (ip), vehicle: saline with Tween-80) was 100 % of control and the T/C (dose: 150.0 mg/kg/injection, schedule: Q04DX003 (ip), vehicle: saline with Tween-80) was 100 % of control.
With `O=C(NNc1ncccn1)c1ccc(C(=O)NNc2ncccn2)cc1` the T/C (dose: 7.5 mg/kg/injection, schedule: Q01DX005 (ip), vehicle: saline with Tween-80) was 94 % of control and the T/C (dose: 15.0 mg/kg/injection, schedule: Q01DX005 (ip), vehicle: saline with Tween-80) was 93 % of control.
In the case of `O=C(O)CC(=O)O.[NH-]C1CCCC([NH-])C1.[Pt+2]` (stereo not drawn), the T/C (dose: 12.5 mg/kg/injection, schedule: Q04DX002 (ip), vehicle: saline with Tween-80) is reported as 157 % of control and the T/C (dose: 25.0 mg/kg/injection, schedule: Q04DX002 (ip), vehicle: saline with Tween-80) is reported as 180 % of control.
For `Cc1ccc(S(=O)(=O)OCCN(CCOS(=O)(=O)c2ccc(C)cc2)S(=O)(=O)c2ccc(C)cc2)cc1`, the T/C (dose: 50.0 mg/kg/injection, schedule: Q01DX009 (ip), vehicle: Klucel (hydroxypropylcellulose) (HPC)) was 108 % of control, the T/C (dose: 100.0 mg/kg/injection, schedule: Q01DX009 (ip), vehicle: Klucel (hydroxypropylcellulose) (HPC)) was 100 % of control and the T/C (dose: 200.0 mg/kg/injection, schedule: Q01DX009 (ip), vehicle: Klucel (hydroxypropylcellulose) (HPC)) was 102 % of control. The T/C (dose: 400.0 mg/kg/injection, schedule: Q01DX009 (ip), vehicle: Klucel (hydroxypropylcellulose) (HPC)) was 95 % of control.
`CN1c2cccc[c]2[Sn]([CH3])([CH3])[c]2ccccc21` was tested, and the T/C (dose: 30.0 mg/kg/injection, schedule: Q01DX005 (ip), vehicle: saline with Tween-80) was 115 % of control, the T/C (dose: 60.0 mg/kg/injection, schedule: Q01DX005 (ip), vehicle: saline with Tween-80) was 113 % of control and 123 % of control and the T/C (dose: 120.0 mg/kg/injection, schedule: Q01DX005 (ip), vehicle: saline with Tween-80) was 124 % of control.
With `CNC(=O)OCCC(OC(=O)NC)C1CCC2C3CC=C4CC(OC(=O)c5ccccc5)CCC4(C)C3CCC12C` (stereo not drawn) the T/C (dose: 50.0 mg/kg/injection, schedule: Q01DX005 (ip), vehicle: Klucel (hydroxypropylcellulose) (HPC)) was 103 % of control, the T/C (dose: 100.0 mg/kg/injection, schedule: Q01DX005 (ip), vehicle: Klucel (hydroxypropylcellulose) (HPC)) was 99 % of control and the T/C (dose: 200.0 mg/kg/injection, schedule: Q01DX005 (ip), vehicle: Klucel (hydroxypropylcellulose) (HPC)) was 92 % of control.
For `Clc1ccc(Nc2c3ccccc3nc3c2cnn3-c2ccccc2)cc1`, the T/C (dose: 60.0 mg/kg/injection, schedule: Q01DX005 (ip), vehicle: Klucel (hydroxypropylcellulose) (HPC)) was 89 % of control, the T/C (dose: 120.0 mg/kg/injection, schedule: Q01DX005 (ip), vehicle: Klucel (hydroxypropylcellulose) (HPC)) was 99 % of control and 93 % of control and the T/C (dose: 240.0 mg/kg/injection, schedule: Q01DX005 (ip), vehicle: Klucel (hydroxypropylcellulose) (HPC)) was 100 % of control and 90 % of control.
In the case of `O=C1c2cccc([N+](=O)[O-])c2C(=O)C1c1ccccn1` (stereo not drawn), the T/C [1] is reported as 99 % of control, the T/C [2] is reported as 87 % of control and the T/C [3] is reported as 96 % of control. For the same molecule, the T/C [4] was 97 % of control.
`CCC/C=C\C=C\C(=O)OC1C2C=C3CC(C(C)O)OC(=O)CC(O)CC4CC(OC(C)=O)C(C)(C)C(O)(CC5C/C(=C\C(=O)OC)CC(/C=C/C(C)(C)C16OC(=O)C(O)C32O6)O5)O4` (stereo not drawn) was tested, and the T/C (dose: 0.03 mg/kg/injection, schedule: Q01DX009 (ip), vehicle: saline + alcohol) was 163 % of control and the T/C (dose: 30.0 micrograms/kg/injection, schedule: Q01DX009 (ip), vehicle: saline + alcohol) was 153 % of control.
For `CC(C)(C)C1CCC(C(=O)O)CC1` (stereo not drawn), the T/C [1] was 91 % of control, the T/C (dose: 50.0 mg/kg/injection, schedule: Q04DX003 (ip), vehicle: saline with Tween-80) was 100 % of control and the T/C [2] was 100 % of control and 91 % of control. The T/C (dose: 100.0 mg/kg/injection, schedule: Q04DX003 (ip), vehicle: saline with Tween-80) was 95 % of control, the T/C [3] was 91 % of control and 100 % of control and the T/C (dose: 200.0 mg/kg/injection, schedule: Q04DX003 (ip), vehicle: saline with Tween-80) was 109 % of control and 95 % of control. The T/C [4] was 91 % of control and the T/C (dose: 400.0 mg/kg/injection, schedule: Q04DX003 (ip), vehicle: saline with Tween-80) was 100 % of control.
